According to patent US5116971A, “Substituted-1,4-diazepines” (Boehringer Ingelheim KG, priority 1986, dated 1992):

test system: human platelets (aggregation induced by PAF); test: inhibition of PAF-induced blood platelet aggregation in vitro; assay type: cell-based; settings: Homo sapiens, read-out: IC50 (concentration for 50% inhibition of aggregation)
Procedure: To determine the PAF-antagonistic action of substances, use was made of the aggregation of human platelets induced in vitro by PAF. To obtain platelet-rich plasma (PRP), blood is taken from an uncompressed vein using a plastic syringe containing 3.8% strength sodium citrate solution. The ratio between sodium citrate solution and blood is 1:9. After careful mixing, the citrated blood is centrifuged at 150×g (1200 rpm) for 20 minutes. The platelet aggregation is measured by the method worked out by Born and Cross (G. V. R. Born and M. J. Cross, J. Physiol. 168, 178 (1963)), with PAF being added to the continuously stirred PRP to initiate the aggregation. The test substance is added in a volume of 10 ul in each case 2-3 minutes before initiation of the aggregation. The solvents used are either distilled water, ethanol and/or dimethyl sulphoxide. Blanks contain corresponding volumes of these solvents. After the initial absorption has been recorded (2-3 minutes), aggregation is induced with PAF (5×10^-8 M). To assess the effects of substances, use is made of the maximum of the first aggregation wave. The maximum absorption rate (=maximum aggregation×100%) induced by PAF is, in each case, simultaneously checked in a parallel mixture (=blank in one channel of the two-channel aggregometer) for each test mixture (second channel) and used as the 100% value. The aggregation obtained under the influence of the test substance is […].

Compound	IC50 [nM]
Cc1nnc2n1-c1ccc(Cl)cc1C(c1ccccc1Cl)=NC2 [Triazolam, triazolam, reference compound]	9000
COC(=O)CCNC(=O)c1ccc2c(c1)C(c1ccccc1Cl)=NCc1ncc(C)n1-2 [compound 2]	900
Cc1nnc2n1-c1ccc(C(=O)NCC(=O)N3CCOCC3)cc1C(c1ccccc1Cl)=NC2 [compound 4]	700
COC(=O)C[C@H](NC(=O)c1ccc2c(c1)C(c1ccccc1Cl)=NCc1nnc(C)n1-2)C(=O)OC [compound 5]	1200
Cc1nnc2n1-c1ccc(C(=O)NC3CCSC3=O)cc1C(c1ccccc1Cl)=NC2 (stereo not drawn) [compound 11]	3500
Cc1nnc2n1-c1ccc(CC(=O)NCC(=O)N3CCOCC3)cc1C(c1ccccc1Cl)=NC2 [compound 12]	1100
COC(=O)[C@@H](CCSC)NC(=O)c1ccc2c(c1)C(c1ccccc1Cl)=NCc1nnc(C)n1-2 [compound 15]	900
CCN(CC)C(=O)[C@H](CC(C)C)NC(=O)c1ccc2c(c1)C(c1ccccc1Cl)=NCc1nnc(C)n1-2 [compound 16]	400
Cc1nnc2n1-c1ccc(C(=O)N3CCC[C@H]3C(=O)N3CCOCC3)cc1C(c1ccccc1Cl)=NC2 [compound 18]	8100
Cc1nnc2n1-c1ccc(C(=O)N[C@H](C(=O)NC(C)C)C(C)C)cc1C(c1ccccc1Cl)=NC2 [compound 27]	700
COc1nnc2n1-c1ccc(C(=O)NCC(=O)N3CCOCC3)cc1C(c1ccccc1Cl)=NC2 [compound 33]	2500
C[C@H](NC(=O)c1ccc2c(c1)C(c1ccccc1Cl)=NCc1nnc(C3CC3)n1-2)C(=O)N1CCCC1 [compound 35]	900

same assay, conditions: read-out: IC50 (concentration for 50% inhibition of aggregation), Table A, human PRP, PAF 5×10^-8 M

Compound	IC50 [nM]
Cc1nnc2n1-c1ccc(C(=O)NCC(=O)N3CCOCC3)cc1C(c1ccccc1Cl)NC2 (stereo not drawn) [compound 21]	1900
Cc1nnc2n1-c1sc(C(=O)N(C)CC(=O)N3CCOCC3)cc1C(c1ccccc1Cl)=NC2 [compound 28]	1900
Cc1nnc2n1-c1sc(CCC(=O)NCC(=O)N3CCOCC3)cc1C(c1ccccc1Cl)=NC2 [compound 48]	600
